# Results reported in US20060217440A1, “Porcess for production of 2-cyano-3-hydroxy-n-(4-trifluoromethylphenyl)hept-2-en-6-ynamide and process for production of polymorphs thereof” (priority 2003, published 2006).
# Test: Stability of the crystal forms based on DSC endothermic test
# Assay type: physicochemical
# Settings: analysis based on measurement results of a DSC endothermic test; rank order among polymorphs of compound (I)
# Description: FIGS. 1, 4 and 7 show the IR (KBr) spectrum, DSC endothermic curve and X-ray diffraction pattern of the crystals, respectively.
# FIGS. 2, 5 and 8 show the IR (KBr) spectrum, DSC endothermic curve and X-ray diffraction pattern of the crystals, respectively.
# FIGS. 3, 6 and 9 show the […]
smiles,measurement,value
"C#CCC/C(O)=C(\C#N)C(=O)Nc1ccc(C(F)(F)F)cc1 [B-form crystals, 2-cyano-3-hydroxy-N-(4-trifluoromethylphenyl) hept-2-en-6-ynamide]",stability order of the crystal forms,B-form crystals>C-form crystals>A-form crystals
